Molecules are shown by their SMILES.

Consider 3 compounds from patent US20090068113A1, “AMPHIPHILIC SQUARAINE DYES, PROCESS FOR PREPARATION THEREOF AND USE THEREOF” (COUNCIL OF SCIENTIFIC AND INDUSTRIAL RESEARCH, priority 2005, published 2009).

Holding throughout (type): physicochemical
A short description of data set [1]: Absorption, emission and fluorescence quantum yield in aqueous and alcoholic solvents. An excerpt:
The absorption and emission maxima, and fluorescence quantum yields of these dyes in aqueous and alcoholic solvents are listed in Table 1. The long wavelength absorption and emission maxima and good fluorescence quantum yields in aqueous media make these dyes ideal candidates for application as fluorescence probes.

Data set [2] in a line: Photophysical properties and picosecond time-resolved fluorescence lifetimes in the presence of cationic micelle CTAB. The following applies: for Abs λmax / Ems λmax / Φf: In the presence of CTAB. From the text: (§1) Study of the stability and photophysical properties of a photosensitizer under physiological conditions is important during its evaluation for various in vitro and in vivo applications. Particularly, the influence of membrane mimics like cetyltrimethylammonium bromide and carrier systems like β-cyclodextrin will provide information on the sensitizer behaviour under physiological conditions. Moreover, such studies are also useful to clarify points such as whether a particular dye forms aggregates or not and whether it generates cytotoxic agents or not in such environments. These media are unique in their properties, since β-CD forms inclusion complexes with the guest molecules, while others form micellar structures thereby provide in them both the hydrophobic and hydrophilic environment.
(§2) FIGS. 3, 4, and 5 show the emission spectra of dye of the general formula 1, wherein, R^1=—(CH2—CH2—O)n—CH3, n=4 and R^2=—CH3 in the presence of cationic micelle CTAB, anionic micelle SDS and neutral micelle Triton X-100, respectively. As the concentration of micelles increases, the fluorescence intensity of the dye increases showing an effective interaction between the micelles and the dye. To have a better understanding of the effect of micellar media we have analyzed the picosecond time-resolved fluorescence lifetimes of dyes of the general formula 1. […] Tables 2, 3 and 4
(§3) lists the absorption and emission maxima, fluorescence quantum yield and lifetimes of dyes of the general formula 1 wherein, R^1=—(CH2—CH2—O)n—CH3, n=4 and R^2=—CH3, general formula 2, wherein R^1, R^2=—(CH2—CH2—O)n—CH3, n=4 and general formula 3, wherein R^1=—(CH2)n—CO2X, n=3, X=H, and R^2=—CH3, in the absence and presence of cationic micelle CTAB, anionic micelle SDS and neutral micelle Triton X-100.

Data set [3] can be described thus: Photophysical properties and fluorescence lifetimes in the presence of anionic micelle SDS.
Excerpt: as §1, §2, §3

Data set [4] is described as follows: Photophysical properties and fluorescence lifetimes in the presence of neutral micelle Triton X-100.
Excerpt: as §1, §2, §3

Data set [5] can be described thus: Photophysical properties and fluorescence lifetimes in the presence of β-CD. The following applies: for Abs λmax / Ems λmax / Φf: In the presence of β-CD.
Excerpt: as §1
Table 5 summarises the absorption and emission maxima, fluorescence quantum yields and lifetimes of squaraine dyes of the general formula 1 in the presence of β-CD.

The nature of data set [6]: Summary of photophysical properties in the presence of membrane mimics and drug carriers. The settings on record: presence of membrane mimics and drug carriers versus aqueous media. From the text: The main advantages of these systems include: • 1. Squaraines dyes represented by formulae 1, 2 and 3 are novel and pure single substances. • 2. Their synthetic methodology is very economical. • 3. […] They can be used for photodynamic applications such as sterilization of fluids etc. • 7. The squaraine-based dyes can be used as near infrared fluorescent probes for protein labeling. • 8. The squaraine dyes of the general formula 1 can be used as near infrared fluorescent labels in immunoassays. • 9. They can be used for the detection of biologically important metal ions under physiological conditions. • 10. These novel dyes can be used as near-infrared fluorescence sensors in biological, biochemical and industrial applications.

Data set [7] in a line: Photophysical properties and fluorescence lifetimes in the presence of β-CD. The settings on record: in the absence of β-CD.
[8] abbreviates: In the presence of Triton X-100.

For the compound `COCCOCCOCCOCCN(C)c1ccc(C2=C([O-])C(=C3C=CC(=[N+](C)CCOCCOCCOCCOC)C=C3)C2=O)cc1` [Formula 1], the “Φf (fluorescence quantum yield)” value in data set [1] (10% v/v Ethanol/water) is 0.018; in data set [1] (Ethanol), 0.19; in data set [1] (Water), 0.013. Moreover, the “λmax, nm abs” value in data set [1] (10% v/v Ethanol/water) came out at 645 nm; in data set [1] (Ethanol), 637 nm; in data set [1] (Water) it was 644 nm. In addition, the “λmax, nm ems” value is listed as 674 nm in data set [1] (10% v/v Ethanol/water), 660 nm in data set [1] (Ethanol) and 671 nm in data set [1] (Water). The “fluorescence intensity as the concentration of micelles increases” value is on record as “increases” in data set [2] (CTAB 0 to 129 mM, excitation 600 nm); “increases” in data set [3] (SDS 0 to 21 mM, excitation 600 nm); “increases” in data set [4] (Triton X-100 0 to 118 mM, excitation 600 nm). Besides, the “Abs λmax” value in data set [2] is recorded as 642 nm; in data set [3] (In the presence of SDS), 640 nm; in data set [4] (setting [8]), 645 nm; in data set [5] it was 644 nm. The “Ems λmax” value in data set [2] is given as 663 nm; in data set [3] (In the presence of SDS) it was 663 nm; in data set [4] (setting [8]) it was 669 nm; in data set [5] it was 663 nm. The Φf in data set [2] turned out to be 0.12; in data set [3] (In the presence of SDS), 0.15; in data set [4] (setting [8]) it was 0.12; in data set [5], 0.10. In addition, the Lifetimes in data set [3] (In the presence of SDS) was 590 ps. For the same compound, the “form of fluorescence decay” value in data set [5] (in the presence of β-CD) is given as “Biexponential decay”; in data set [7], “mono exponential decay”. Moreover, the “increase of emission quantum yield” value in data set [6] is approximately 10 fold.
`COCCOCCOCCOCCN(CCOCCOCCOCCOC)c1ccc(C2=C([O-])C(=C3C=CC(=[N+](CCOCCOCCOCCOC)CCOCCOCCOCCOC)C=C3)C2=O)cc1` [Formula 2]: in data set [1] (10% v/v Ethanol/water), the “Φf (fluorescence quantum yield)” value is given as 0.026; the “λmax, nm abs” value is on record as 646 nm; the “λmax, nm ems” value amounted to 675 nm. Also, in data set [1] (Ethanol), the “Φf (fluorescence quantum yield)” value was 0.21; the “λmax, nm abs” value stood at 638 nm; the “λmax, nm ems” value was 662 nm. In addition, in data set [1] (Water), the “Φf (fluorescence quantum yield)” value came out at 0.021; the “λmax, nm abs” value is on record as 646 nm; the “λmax, nm ems” value came out at 676 nm. Moreover, in data set [2], the “Abs λmax” value worked out at 644 nm, the “Ems λmax” value stood at 667 nm and the Φf was 0.096. Moreover, in data set [3] (In the presence of SDS), the “Abs λmax” value is 643 nm, the “Ems λmax” value is recorded as 668 nm and the Φf is 0.16. In addition, in data set [4] (setting [8]), the “Abs λmax” value amounted to 646 nm, the “Ems λmax” value is given as 671 nm, the “Relative contribution of lifetime component” value is given as “(7%)” and the Φf was determined as 0.14. In data set [5], the “Abs λmax” value is on record as 645 nm, the “Ems λmax” value is 668 nm and the Φf is 0.07. Also, in data set [6], the “increase of emission quantum yield” value is approximately 10 fold.
Consider `CN(CCCC(=O)O)c1ccc(C2=C([O-])C(=C3C=CC(=[N+](C)CCCC(=O)O)C=C3)C2=O)cc1` [Formula 3], for which the “Φf (fluorescence quantum yield)” value in data set [1] (10% v/v Ethanol/water) stood at 0.015; in data set [1] (Ethanol), 0.18; in data set [1] (Water) it was 0.007. Also, the “λmax, nm abs” value is reported as 647 nm in data set [1] (10% v/v Ethanol/water), 636 nm in data set [1] (Ethanol) and 645 nm in data set [1] (Water). For the same compound, the “λmax, nm ems” value in data set [1] (10% v/v Ethanol/water) stood at 673 nm; in data set [1] (Ethanol), 662 nm; in data set [1] (Water), 673 nm. Further, the “Abs λmax” value stood at 644 nm in data set [2], 649 nm in data set [4] (setting [8]) and 649 nm in data set [5]. Also, the “Ems λmax” value in data set [2] was 667 nm; in data set [4] (setting [8]) it was 672 nm; in data set [5], 666 nm. Besides, the Φf in data set [2] is 0.14; in data set [4] (setting [8]) it was 0.12; in data set [5] it was 0.19. Besides, the “increase of emission quantum yield” value in data set [6] is recorded as approximately 10 fold.
